Test: molar heat capacity at constant volume
Details: Liquid, Vacuum adiabatic calorimetry

FCF [difluoromethane]
Details	molar heat capacity at constant volume [J/K/mol]
268.15 K, 8268 kPa	49.47
268.15 K, 8502 kPa	48.8
269.15 K, 9280 kPa	49.32
269.15 K, 9512 kPa	49.68
270.15 K, 10291 kPa	49.47
270.15 K, 10521 kPa	49.84
271.15 K, 11302 kPa	49.42
271.15 K, 11531 kPa	49.53
272.15 K, 12312 kPa	49.94
272.15 K, 12421 kPa	50.57
272.15 K, 12540 kPa	49.06
273.15 K, 13321 kPa	49.06
273.15 K, 13429 kPa	49.79
273.15 K, 13551 kPa	50.25
274.15 K, 14330 kPa	49.94
274.15 K, 14438 kPa	49.63
274.15 K, 14560 kPa	49.37
275.15 K, 15337 kPa	49.47
275.15 K, 15444 kPa	49.84
275.15 K, 15568 kPa	49.47
276.15 K, 16344 kPa	49.89
276.15 K, 16452 kPa	49.84
276.15 K, 16577 kPa	49.73
277.15 K, 17350 kPa	49.32
277.15 K, 17457 kPa	49.63
277.15 K, 17583 kPa	49.99
278.15 K, 18354 kPa	49.89
278.15 K, 18462 kPa	50.25
278.15 K, 18589 kPa	49.47
279.15 K, 19358 kPa	49.89
279.15 K, 19465 kPa	49.79
279.15 K, 19595 kPa	50.15
280.15 K, 20361 kPa	49.63
280.15 K, 20468 kPa	50.2
280.15 K, 20598 kPa	49.99
281.15 K, 21363 kPa	50.46
281.15 K, 21470 kPa	49.63
281.15 K, 21601 kPa	49.89
282.15 K, 22363 kPa	49.58
282.15 K, 22472 kPa	50.25
282.15 K, 22602 kPa	50.05
283.15 K, 23363 kPa	50.41
283.15 K, 23473 kPa	50.15
283.15 K, 23603 kPa	49.94
284.15 K, 24362 kPa	50.31
284.15 K, 24472 kPa	49.94
284.15 K, 24606 kPa	50.25
285.15 K, 25359 kPa	50.15
285.15 K, 25470 kPa	50.51
285.15 K, 25603 kPa	50.25
286.15 K, 26356 kPa	50.51
286.15 K, 26466 kPa	50.62
286.15 K, 26598 kPa	50.2
287.15 K, 27351 kPa	50.36
287.15 K, 27461 kPa	50.2
287.15 K, 27594 kPa	50.36
288.15 K, 28345 kPa	50.57
288.15 K, 28454 kPa	50.62
288.15 K, 28588 kPa	50.41
289.15 K, 5774 kPa	51.24
289.15 K, 5835 kPa	49.79
289.15 K, 29338 kPa	50.46
289.15 K, 29446 kPa	50.72
289.15 K, 29581 kPa	51.09
290.15 K, 6570 kPa	50.62
290.15 K, 6631 kPa	50.93
291.15 K, 7365 kPa	51.14
291.15 K, 7428 kPa	51.19
292.15 K, 8161 kPa	51.24
292.15 K, 8224 kPa	51.14
293.15 K, 8956 kPa	51.4
293.15 K, 9019 kPa	51.71
294.15 K, 9752 kPa	51.66
294.15 K, 9815 kPa	50.83
295.15 K, 10546 kPa	51.19
295.15 K, 10610 kPa	51.56
296.15 K, 11341 kPa	51.19
296.15 K, 11405 kPa	51.5
297.15 K, 12135 kPa	51.61
297.15 K, 12199 kPa	51.35
298.15 K, 12929 kPa	51.5
298.15 K, 12993 kPa	51.92
299.15 K, 13723 kPa	51.66
299.15 K, 13787 kPa	51.82
300.15 K, 14517 kPa	51.66
300.15 K, 14581 kPa	52.08
301.15 K, 15309 kPa	52.34
301.15 K, 15374 kPa	51.92
302.15 K, 16102 kPa	52.08
302.15 K, 16167 kPa	52.23
303.15 K, 16894 kPa	52.13
303.15 K, 16960 kPa	52.49
304.15 K, 17685 kPa	52.13
304.15 K, 17752 kPa	52.54
305.15 K, 18476 kPa	52.75
305.15 K, 18543 kPa	52.6
306.15 K, 19267 kPa	52.75
306.15 K, 19335 kPa	52.8
307.15 K, 20125 kPa	52.49
308.15 K, 20848 kPa	52.91
308.15 K, 20915 kPa	52.8
309.15 K, 21639 kPa	52.7
309.15 K, 21704 kPa	53.32
310.15 K, 22429 kPa	52.86
310.15 K, 22492 kPa	53.12
311.15 K, 23217 kPa	53.17
311.15 K, 23281 kPa	53.69
312.15 K, 24005 kPa	53.64
312.15 K, 24068 kPa	53.79
313.15 K, 24793 kPa	53.53
313.15 K, 24855 kPa	53.79
314.15 K, 25579 kPa	53.79
314.15 K, 25641 kPa	53.43
315.15 K, 26364 kPa	53.58
315.15 K, 26427 kPa	54
316.15 K, 27149 kPa	53.53
316.15 K, 27212 kPa	54.68
317.15 K, 27934 kPa	54.42
317.15 K, 27996 kPa	54.21
318.15 K, 28719 kPa	54.1
318.15 K, 28779 kPa	54.78

Source: the NIST ThermoML archive (doi:10.1007/s10765-008-0535-5)
